Measurements: patent publication US6432655B1, “Method of obtaining compositions” (Synaptic Pharmaceutical Corporation, priority 1992, dated 2002)
Where two headings read alike, the source gives them in different places.

Columns and labels:
[1] = biological target: T1, human 5-HT4B receptor (clone hp78a) (Homo sapiens, UniProt P34969); test: [3H]5-HT radioligand binding to membranes of Cos-7 cells transiently expressing clone hp78a
T1 construct: The entire coding region of the human 5-HT4B receptor (1338 bp); expressed in transfected cells; host or cells: Cos-7 (monkey kidney), transient, plasmid hp78a/EXJ (pcEXV-5HT4B)

human 5-HT4B receptor [2] = biological target: T2, human 5-HT4B receptor (Homo sapiens, UniProt P34969); test: cell-based; format: cell-based; conditions: for Emax: L-M(TK-), read-out: Emax* (% 5-HT RESPONSE)
T2 construct: The entire coding region of the human 5-HT4B receptor (1338 bp); expressed in transfected cells

5-HT4B receptor = biological target: T3, 5-HT4B receptor (Rattus norvegicus, UniProt P32305); test: [3H]5-CT receptor autoradiography on rat brain sections; format: binding; conditions: masks: 100 nM PAPP and 160 nM (−)pindolol added together
T3 construct: from tissue; host or cells: rat brain cryostat sections (20 µm)

[3] = test system: 5-HT receptor present in glial membranes; conditions: Fillion et al., 1980; property shared with hp78a; cited from earlier work
human 5-HT4B receptor [4] = biological target: T2, human 5-HT4B receptor; test: cAMP formation in intact, transiently transfected Cos-7 cells; format: cell-based
[5] = 30 nM competitor, 5 nM [3H]5-HT, 30 min at 37° C.
[6] = Ki (apparent dissociation constants for clone hp78a)
[7] = read-out: Ki (apparent dissociation constants for clone hp78a)
[8] = dissociation constant of antagonist, KB = [B]/(A′/A) − 1], read-out: KB
[9] = normalized to the 5-HT maximal response

T2 sequence (P34969 1-445 isoform P34969-2): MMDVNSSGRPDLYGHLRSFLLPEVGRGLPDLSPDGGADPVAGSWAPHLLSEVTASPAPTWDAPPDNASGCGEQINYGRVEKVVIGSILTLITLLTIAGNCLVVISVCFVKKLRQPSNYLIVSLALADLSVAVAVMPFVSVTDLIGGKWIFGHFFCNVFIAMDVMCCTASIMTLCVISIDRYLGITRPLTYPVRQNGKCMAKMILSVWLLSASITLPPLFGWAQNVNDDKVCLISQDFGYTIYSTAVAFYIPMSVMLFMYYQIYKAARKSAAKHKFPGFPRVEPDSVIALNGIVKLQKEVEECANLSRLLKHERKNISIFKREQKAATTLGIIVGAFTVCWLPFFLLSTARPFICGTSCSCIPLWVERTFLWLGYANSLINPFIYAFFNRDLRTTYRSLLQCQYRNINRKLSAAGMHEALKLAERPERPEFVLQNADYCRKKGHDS
T1 sequence (P34969 1-445 isoform P34969-2): as above
T3 sequence (P32305 whole entry): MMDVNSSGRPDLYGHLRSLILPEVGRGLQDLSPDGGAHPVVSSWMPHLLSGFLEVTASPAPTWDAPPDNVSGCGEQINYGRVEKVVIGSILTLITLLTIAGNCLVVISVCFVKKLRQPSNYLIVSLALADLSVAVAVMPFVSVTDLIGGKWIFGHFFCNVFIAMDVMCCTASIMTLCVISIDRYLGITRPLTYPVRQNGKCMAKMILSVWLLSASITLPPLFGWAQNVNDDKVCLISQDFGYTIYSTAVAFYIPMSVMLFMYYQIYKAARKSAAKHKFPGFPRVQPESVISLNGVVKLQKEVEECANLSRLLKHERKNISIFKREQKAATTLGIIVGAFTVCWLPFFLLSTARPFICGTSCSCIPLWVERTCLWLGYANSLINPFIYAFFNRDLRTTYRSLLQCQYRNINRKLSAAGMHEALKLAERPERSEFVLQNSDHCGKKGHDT

SMILES: Nc1nc2c(ncn2[C@@H]2O[C@H](COP(=O)(O)OP(=O)(O)NP(=O)(O)O)[C@@H](O)[C@H]2O)c(=O)[nH]1 [Gpp(NH)p, 5′-guanylylimidodiphosphate]
- reduction of high affinity [3H]5-HT binding [1]: 75%

SMILES: NCCc1ccc(O)c(O)c1 [Dopamine]
- PERCENT INHIBITION (displacement of specific [3H]5-HT binding) [1, 5]: 0

SMILES: O=C1NCN(c2ccccc2)C12CCN(CC1COc3ccccc3O1)CC2 (stereo not drawn) [Spiroxatrine]
- PERCENT INHIBITION (displacement of specific [3H]5-HT binding) [1, 5]: 12

SMILES: NCCc1c[nH]c2ccc(OCc3ccccc3)cc12 [5-Benzyloxytryptamine]
- Ki [1, 6]: 729 nM

SMILES: CCCN(CCC)CCc1c[nH]c2ccc(C(N)=O)cc12 [Dipropyl-5-carboxamidotryptamine]
- Ki [1, 7]: 37 ± 21 nM
- EC50 (human 5-HT4B receptor [2]): 2400 nM
- Emax* (% 5-HT RESPONSE) (human 5-HT4B receptor [2]): 86 ± 12 % 5-HT RESPONSE
- INTRINSIC ACTIVITY (human 5-HT4B receptor [2]): AGONIST (key: AGONIST indicates that the maximal response to the drug was at least 80% of the maximum response obtained with 5-HT)

SMILES: Nc1ccc(CCN2CCN(c3cccc(C(F)(F)F)c3)CC2)cc1 [PAPP]
- PERCENT INHIBITION (displacement of specific [3H]5-HT binding) [1]: 21
- effect on [3H]5-CT binding (5-HT4B receptor): markedly reduced

SMILES: CC(C)NCC(O)COc1cccc2[nH]ccc12 (single isomer, unassigned; (-)) [(−)pindolol]
- effect on [3H]5-CT binding (5-HT4B receptor): markedly reduced

SMILES: Cc1nc2sccn2c(=O)c1CCN1CCC(=C(c2ccc(F)cc2)c2ccc(F)cc2)CC1 [Ritanserin]
- Ki ([1]; 5 nM [3H]5-HT, seven concentrations of competitor, 30 min at 37° C., mean ± S.E.M., 2-5 determinations, read-out: Ki (apparent dissociation constants for clone hp78a)): 45 ± 10 nM

SMILES: CC(N)Cc1c[nH]c2ccc(O)cc12 (racemic) [α-Methyl-5-hydroxy-tryptamine]
- Ki [1, 6]: 509 nM

SMILES: c1ccc2nc(N3CCNCC3)ccc2c1 [Quipazine]
- PERCENT INHIBITION (displacement of specific [3H]5-HT binding) ([1]; 100 nM competitor, 5 nM [3H]5-HT, 30 min at 37° C.): 3

SMILES: CC[C@@H](CO)NC(=O)[C@@H]1C=C2c3cccc4c3c(cn4C)C[C@H]2N(C)C1 [Methysergide]
- Ki [1, 7]: 83 ± 5 nM
- antagonism [3]: Potent antagonism
- FOLD cAMP STIMULATION (human 5-HT4B receptor [4]): 1.7 ± 0.43
- antagonism of the 5-HT response (human 5-HT4B receptor [4]): almost completely

SMILES: CCN(CC)C(=O)[C@@H]1C=C2c3cccc4[nH]c(Br)c(c34)C[C@H]2N(C)C1 [2-Bromo-LSD]
- Ki [1, 7]: 30 ± 10 nM
- antagonism [3]: Potent antagonism
- % INHIBITION OF 5-HT RESPONSE (human 5-HT4B receptor [4]): 95 ± 4.5%
- FOLD cAMP STIMULATION (human 5-HT4B receptor [4]; 1 μM drug, relative to basal levels): 0
- INTRINSIC ACTIVITY (human 5-HT4B receptor [2]): ANTAGONIST
- Kb (human 5-HT4B receptor [2]; [8]): 12 ± 3 nM
- Emax* (% 5-HT RESPONSE) (human 5-HT4B receptor [2]; [9]): 0 % 5-HT RESPONSE

SMILES: CC(C)C[C@H]1C(=O)N2CCC[C@H]2[C@]2(O)O[C@](NC(=O)[C@@H]3C=C4c5cccc6[nH]c(Br)c(c56)C[C@H]4N(C)C3)(C(C)C)C(=O)N12 [Bromocriptine]
- Kb (human 5-HT4B receptor [2]): 240 ± 10 nM
- Emax (human 5-HT4B receptor [2]): 0%

SMILES: c1ccc2c(N3CCNCC3)cccc2c1 [1-Naphthylpiperazine]
- Ki [1, 7]: 83 ± 19 nM

SMILES: CN1C[C@@H](NS(=O)(=O)N(C)C)C[C@@H]2c3cccc4c3c(cn4C)C[C@H]21 [Mesulergine]
- Emax (human 5-HT4B receptor [2]): 0%
- Kb (human 5-HT4B receptor [2]; [8]): 20 ± 1 nM

SMILES: CN1C[C@H](C(=O)N[C@]2(C)O[C@@]3(O)[C@@H]4CCCN4C(=O)[C@H](Cc4ccccc4)N3C2=O)C[C@@H]2c3cccc4[nH]cc(c34)C[C@H]21 [Dihydroergotamine]
- Ki [1, 6]: 6.9 ± 0.9 nM
- INTRINSIC ACTIVITY (human 5-HT4B receptor [2]): ANTAGONIST
- Emax (human 5-HT4B receptor [2]): 0%
- Kb (human 5-HT4B receptor [2]; [8]): 20 ± 4 nM

SMILES: Cc1cc(C(C)(C)C)c(O)c(C)c1CC1=NCCN1 [Oxymetazoline]
- PERCENT INHIBITION (displacement of specific [3H]5-HT binding) ([1]; 10 nM competitor, 5 nM [3H]5-HT, 30 min at 37° C.): 6

SMILES: CCN(CC)C(=O)[C@@H]1C=C2c3cccc4[nH]cc(c34)C[C@H]2N(C)C1 [d-LSD]
- PERCENT INHIBITION (displacement of specific [3H]5-HT binding) [1]: 77
- INTRINSIC ACTIVITY (human 5-HT4B receptor [2]): ANTAGONIST
- Emax* (% 5-HT RESPONSE) (human 5-HT4B receptor [2]; [9]): 0 % 5-HT RESPONSE

SMILES: CC(C)NCC(O)COc1cccc2[nH]ccc12 (racemic) [Pindolol]
- Ki [1, 7]: > 5000 nM
